Test results reported in patent US11840537B2, “Preparation and application of a 5-bromoquinazoline derivative” (Hefei University of Technology, priority 2020, dated 2023).
Where a name gives a salt, the structure may show the parent alone.

How the values were obtained:
Format in all cases: cell-based
[1] = tested on: hepatoma carcinoma cell SMMC-7721; test: Anti-cancer activity, hepatoma carcinoma cell SMMC-7721; details: liver cancer (SMMC-7721)
colon cancer SW480 = test: Anti-cancer activity, colon cancer SW480 cells
leukemia HL-60 = test: Anti-cancer activity, leukemia HL-60 cells
breast cancer cell MCF-7 = test: Anti-cancer activity, breast cancer cell MCF-7; details: breast cancer cells (MCF-7)

Measured: strong inhibitory activity (ED50)

COC(=O)C1(Nc2nc(=O)[nH]c3ccc(Br)cc23)c2cc(Br)ccc2NC12C(=O)Nc1ccc(Br)cc12 (stereo not shown) [compound (I), 3-[5, 5′-dibromo-3-((6-bromo-2-oxo-1,2-dihydroquinazoline-4-amino)-2′-oxo (2,3′-spirobisindole)]methyl formate]
< 10.0 µg/mL: all assays above
